Read-outs that look alike come from different tables or passages of the source.
Assays:
[1] = system: human NPM-ALK overexpressing murine BaF3 cells; test: Growth inhibition of BaF3-NPM-ALK cells (Yopro staining); assay type: cell-based; settings: Mus musculus, 48 h; two days incubation
Text: The expression of NPM-ALK is achieved by transfecting the BaF3 cell line with an expression vector pCIneo™ (Promega Corp., Madison Wis., USA) coding for NPM-ALK and subsequent selection of G418 resistant cells. Non-transfected BaF3 cells depend on IL-3 for cell survival. In contrast NPM-ALK expressing BaF3 cells (named BaF3-NPM-ALK hereinafter) can proliferate in the absence of IL-3 because they obtain proliferative signal through NPM-ALK kinase. Putative inhibitors of the NPM-ALK kinase therefore abolish the growth signal and result in antiproliferative activity. […] The inhibitory activity of the compounds of formula I is determined, briefly, as follows: BaF3-NPM-ALK cells (15,000/microtitre plate well) are transferred to 96-well microtitre plates. […] The growth of the BaF3-NPM-ALK cells is measured by means of Yopro™ staining [T Idziorek et al. J. Immunol. […] Cell lysis is completed within 60 min at room temperature and total amount of Yopro bound to DNA is determined by measurement using the Cytofluor II 96-well reader (PerSeptive Biosystems) with the following settings: Excitation (nm) 485/20 and Emission (nm) 530/25. IC50 values are determined by a computer-aided system using the formula: IC50=[(ABStest−ABSstart)/(ABScontrol−ABSstart)]×100. […]

[2] = molecular target: Focal Adhesion Kinase (FAK) (Homo sapiens, UniProt Q05397); test: FAK assay system (Focal Adhesion Kinase inhibition); assay type: biochemical
Focal Adhesion Kinase (FAK), sequence (Q05397 384-706): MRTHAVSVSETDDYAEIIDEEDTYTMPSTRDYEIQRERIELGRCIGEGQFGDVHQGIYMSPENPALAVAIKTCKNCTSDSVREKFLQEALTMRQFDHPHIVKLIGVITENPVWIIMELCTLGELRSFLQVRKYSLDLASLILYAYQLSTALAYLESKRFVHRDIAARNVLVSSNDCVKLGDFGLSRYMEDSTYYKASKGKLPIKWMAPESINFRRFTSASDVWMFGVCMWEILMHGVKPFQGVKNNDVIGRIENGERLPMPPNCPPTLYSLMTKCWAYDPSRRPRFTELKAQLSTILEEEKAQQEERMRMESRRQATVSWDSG

[3] = molecular target: IGF-IR (Homo sapiens, UniProt P08069); test: Cellular Capture ELISA of IGF-I induced autophosphorylation of the IGF-IR; assay type: cell-based; settings: read-out: IGF-1R IC50
IGF-IR, sequence (P08069 31-1367): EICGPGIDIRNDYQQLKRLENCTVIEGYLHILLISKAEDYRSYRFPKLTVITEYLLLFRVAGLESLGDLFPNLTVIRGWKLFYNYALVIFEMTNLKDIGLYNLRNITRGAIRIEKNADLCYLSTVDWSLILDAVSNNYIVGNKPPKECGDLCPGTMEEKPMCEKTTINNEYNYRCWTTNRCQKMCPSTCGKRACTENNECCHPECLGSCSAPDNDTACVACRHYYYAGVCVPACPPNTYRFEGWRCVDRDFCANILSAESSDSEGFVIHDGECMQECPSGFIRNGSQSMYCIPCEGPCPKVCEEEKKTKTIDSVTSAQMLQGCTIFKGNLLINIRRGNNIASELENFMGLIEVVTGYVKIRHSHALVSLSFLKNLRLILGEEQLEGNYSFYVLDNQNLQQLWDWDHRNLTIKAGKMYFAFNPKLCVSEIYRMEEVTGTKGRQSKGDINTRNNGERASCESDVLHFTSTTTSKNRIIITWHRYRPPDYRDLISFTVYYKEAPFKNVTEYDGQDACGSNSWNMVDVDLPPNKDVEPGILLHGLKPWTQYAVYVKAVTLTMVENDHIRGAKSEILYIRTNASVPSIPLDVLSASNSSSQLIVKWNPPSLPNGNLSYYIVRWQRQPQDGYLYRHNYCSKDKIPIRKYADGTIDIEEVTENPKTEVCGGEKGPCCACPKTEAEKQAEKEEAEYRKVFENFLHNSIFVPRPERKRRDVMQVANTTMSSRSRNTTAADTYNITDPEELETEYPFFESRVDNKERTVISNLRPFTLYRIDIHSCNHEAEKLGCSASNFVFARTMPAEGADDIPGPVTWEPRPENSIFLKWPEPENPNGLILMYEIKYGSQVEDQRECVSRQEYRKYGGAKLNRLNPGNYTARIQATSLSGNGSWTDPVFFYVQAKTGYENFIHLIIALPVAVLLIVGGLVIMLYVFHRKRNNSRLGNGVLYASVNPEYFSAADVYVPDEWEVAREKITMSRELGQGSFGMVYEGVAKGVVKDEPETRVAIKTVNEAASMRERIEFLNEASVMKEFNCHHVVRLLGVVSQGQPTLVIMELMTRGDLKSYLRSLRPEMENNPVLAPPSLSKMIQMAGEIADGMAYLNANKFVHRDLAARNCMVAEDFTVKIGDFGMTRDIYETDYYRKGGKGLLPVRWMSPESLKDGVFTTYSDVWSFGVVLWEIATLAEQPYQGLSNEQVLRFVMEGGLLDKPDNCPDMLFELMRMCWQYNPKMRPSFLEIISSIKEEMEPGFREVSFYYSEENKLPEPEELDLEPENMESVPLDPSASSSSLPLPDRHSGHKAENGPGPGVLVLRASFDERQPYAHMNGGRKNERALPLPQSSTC
Protocol: In this assay the activity of the compounds of the invention against Insulin-like growth factor I (IGF-I) induced autophosphorylation of the IGF-IR is determined.

[4] = system: Mouse mammary carcinoma 4T1 cells; test: Anchorage-independent tumor cell growth assay; assay type: cell-based
Protocol: Cells are cultured for 2 h and inhibitors are added at various concentrations in a final concentration of 0.1% DMSO. After 48 h, cell growth is assayed with the cell counting kit-8 (Wako Pure Chemical), which uses a water soluble tetrazolium salt WST8. Twenty μL of the reagent is added into each well and cells are further cultured for 2 h. The optical density is measured at 450 nm.

[5] = molecular target: FAK (Mus musculus, UniProt P34152); test: Phos IC50 (phosphorylation); assay type: cell-based
FAK, sequence (P34152 2-1052): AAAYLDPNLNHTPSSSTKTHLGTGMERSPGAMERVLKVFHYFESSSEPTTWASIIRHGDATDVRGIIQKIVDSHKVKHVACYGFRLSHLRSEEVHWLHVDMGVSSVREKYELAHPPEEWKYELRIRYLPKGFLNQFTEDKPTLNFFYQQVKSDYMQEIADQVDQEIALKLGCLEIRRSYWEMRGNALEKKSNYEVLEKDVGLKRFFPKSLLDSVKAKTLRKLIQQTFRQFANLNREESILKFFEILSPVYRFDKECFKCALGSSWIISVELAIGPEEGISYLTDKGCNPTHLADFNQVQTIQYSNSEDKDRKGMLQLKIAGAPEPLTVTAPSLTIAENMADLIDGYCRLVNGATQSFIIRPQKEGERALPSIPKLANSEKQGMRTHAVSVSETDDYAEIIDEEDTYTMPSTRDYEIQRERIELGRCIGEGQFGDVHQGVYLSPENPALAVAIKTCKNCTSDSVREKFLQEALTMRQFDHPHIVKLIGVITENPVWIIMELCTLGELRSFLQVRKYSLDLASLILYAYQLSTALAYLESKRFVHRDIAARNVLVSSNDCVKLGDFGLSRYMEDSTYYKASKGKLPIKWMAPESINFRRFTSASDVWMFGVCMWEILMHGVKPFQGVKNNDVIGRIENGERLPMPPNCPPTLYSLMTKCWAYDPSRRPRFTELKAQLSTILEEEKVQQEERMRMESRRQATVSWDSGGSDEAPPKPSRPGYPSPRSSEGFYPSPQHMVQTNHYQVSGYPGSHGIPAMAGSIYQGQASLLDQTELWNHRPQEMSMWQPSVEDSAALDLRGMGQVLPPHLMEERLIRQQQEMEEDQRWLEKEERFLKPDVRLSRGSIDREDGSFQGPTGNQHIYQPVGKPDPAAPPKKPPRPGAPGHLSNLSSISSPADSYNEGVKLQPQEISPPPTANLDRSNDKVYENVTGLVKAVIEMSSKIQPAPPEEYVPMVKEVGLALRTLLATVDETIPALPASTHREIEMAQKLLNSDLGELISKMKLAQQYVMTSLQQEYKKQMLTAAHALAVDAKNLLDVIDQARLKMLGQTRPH

[6] = system: T Cell; test: T Cell Migration; assay type: cell-based
[7] = molecular target: GST-ALK protein tyrosine kinase (Homo sapiens, UniProt Q9UM73); test: In vitro enzyme assay using GST-ALK protein tyrosine kinase (filter binding assay); assay type: biochemical; settings: b80; assay not specified further; lower end printed as <0.5; read-out: IC50, inhibition of tyrosine kinase activity of anaplastic lymphoma kinase (ALK)
GST-ALK protein tyrosine kinase, sequence (Q9UM73 1116-1392): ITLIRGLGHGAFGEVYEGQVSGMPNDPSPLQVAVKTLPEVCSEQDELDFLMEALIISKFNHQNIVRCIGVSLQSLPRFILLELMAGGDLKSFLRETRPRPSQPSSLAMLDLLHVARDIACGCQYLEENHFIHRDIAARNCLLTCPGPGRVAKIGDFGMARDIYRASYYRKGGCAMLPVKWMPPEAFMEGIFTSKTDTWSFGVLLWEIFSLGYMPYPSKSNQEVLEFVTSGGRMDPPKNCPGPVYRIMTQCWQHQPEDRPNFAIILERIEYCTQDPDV
Protocol: Assays are incubated for 10 min at ambient temperature. […] Following washing (0.5% H3PO4), plates are counted in a liquid scintillation counter. IC50 values are calculated by linear regression analysis of the percentage inhibition.

SMILES | IC50 [1] | IC50 ([2]; read-out: FAK IC50) | IC50 [3] | IC50 ([4]; Mus musculus, 4T1) | IC50 [5] | IC50 ([6]; T-cell) | IC50 [7] | IC50 [4] | IC50 [6] | IC50 ([2]; FAK IC50)
CNC(=O)c1ccccc1Nc1nc(Nc2ccc(N3CCOCC3)cc2OC)ncc1Cl [2-[5-chloro-2-(2-methoxy-4-morpholin-4-yl-phenylamino)-pyrimidin-4-ylamino]-N-methyl-benzamide] | 97 nM | – | – | – | – | – | – | – | – | –
CNS(=O)(=O)c1ccccc1Nc1nc(Nc2cc(N3CCOCC3)ccc2OC)ncc1Br [Example 3-32] | – | 14 nM | 120 nM | 490 nM | 180 nM | 280 nM | – | – | – | –
CNS(=O)(=O)c1ccccc1Nc1nc(Nc2ccc(OC3CCN(C)CC3)cc2OC)ncc1Br [Example 3-33] | – | 2.9 nM | 130 nM | 50 nM | 30 nM | 90 nM | – | – | – | –
CNS(=O)(=O)c1ccccc1Nc1nc(Nc2cc(OCCN3CCOCC3)ccc2OC)ncc1Br [Example 3-35] | – | 13 nM | 3550 nM | 170 nM | 20 nM | 800 nM | – | – | – | –
CNS(=O)(=O)c1ccccc1Nc1nc(Nc2ccc(N3CCN(C)CC3)cc2OC)ncc1Br [Example 3-39] | – | 2 nM | 90 nM | 30 nM | 20 nM | 1000 nM | – | – | – | –
CNC(=O)c1ccccc1Nc1nc(Nc2ccc(N3CCC(NC)C3)cc2OC)ncc1Cl (stereo not drawn) [Example 7-12] | – | 1.9 nM | 620 nM | 1000 nM | 900 nM | 310 nM | – | – | – | –
CNC(=O)c1ccccc1Nc1nc(Nc2ccc(N3CCN4CCOC[C@H]4C3)cc2OC)ncc1Cl [Example 7-15] | – | 4.5 nM | 260 nM | 190 nM | 60 nM | – | 0.5 to 200 nM | – | – | –
CCNC(=O)c1ccccc1Nc1nc(Nc2ccc(OC3CCN(C)CC3)cc2OC)ncc1Cl [Example 9-6] | – | 23 nM | – | 400 nM | 3000 nM | 300 nM | – | – | – | –
COc1cc(N2CCOCC2)ccc1Nc1ncc(Cl)c(Nc2cccc3c2C(=O)N(C)C3)n1 [Example 12-1, 7-[5-Chloro-2-(2-methoxy-4-morpholin-4-yl-phenylamino)-pyrimidin-4-ylamino]-2-methyl-2,3-dihydro-isoindol-1-one] | – | 2.5 nM | – | 400 nM | 90 nM | 220 nM | – | – | – | –
COc1cc(N2CCOCC2)ccc1Nc1ncc(Cl)c(Nc2ccccc2C(=O)N(C)C)n1 [Example 14-1] | – | 19 nM | – | 1470 nM | 200 nM | 280 nM | – | – | – | –
COc1cc(N2CCOCC2)ccc1Nc1ncc(Cl)c(Nc2ccccc2C(=O)NC(C)C)n1 [Example 14-2] | – | 190 nM | – | 1100 nM | 2000 nM | 1000 nM | – | – | – | –
CNC1CCN(c2ccc(Nc3ncc(Cl)c(Nc4ccccc4S(=O)(=O)NC(C)C)n3)c(OC)c2)C1 (stereo not drawn) [Example 19-1] | – | < 1 nM | 1410 nM | 300 nM | 200 nM | 290 nM | – | – | – | –
COc1cc(N2CCN(C)CC2)ccc1Nc1ncc(Cl)c(Nc2ccccc2S(=O)(=O)NC(C)C)n1 [Example 19-5] | – | 1.8 nM | – | – | 200 nM | – | – | 670 nM | 70 nM | –
COc1cc(N2CCOCC2)ccc1Nc1ncc(Cl)c(Nc2ccccc2S(=O)(=O)NC(C)C)n1 [Example 19-8] | – | 3.2 nM | 130 nM | 400 nM | 30 nM | 290 nM | – | – | – | –
COc1cc(N2CCC(N(C)C)C2)ccc1Nc1ncc(Cl)c(Nc2ccccc2S(=O)(=O)NC(C)C)n1 (stereo not drawn) [Example 19-9] | – | – | 480 nM | 390 nM | – | 300 nM | – | – | – | 1.3 nM
CC(C)NS(=O)(=O)c1ccccc1Nc1nc(Nc2ccc(OC3CCN(C)CC3)cc2F)ncc1Cl [Example 19-28] | – | 4.8 nM | 460 nM | 120 nM | 100 nM | 300 nM | – | – | – | –
CNS(=O)(=O)c1ccccc1Nc1nc(Nc2ccc(N3CCOCC3)cc2OC)ncc1Cl [Example 20-1] | – | 10 nM | 700 nM | 180 nM | 300 nM | 250 nM | – | – | – | –
CNS(=O)(=O)c1ccccc1Nc1nc(Nc2ccc(N3CCN(C(C)=O)CC3)cc2OC)ncc1Cl [Example 20-2] | – | 9 nM | 520 nM | 170 nM | 120 nM | 750 nM | – | – | – | –
CNS(=O)(=O)c1ccccc1Nc1nc(Nc2ccc(N3CCN(C)CC3)cc2OC)ncc1Cl [Example 20-6] | – | 5 nM | – | 140 nM | 360 nM | 49000 nM | – | – | – | –
CCC(CC)NS(=O)(=O)c1ccccc1Nc1nc(Nc2ccc(OC3CCN(C)CC3)cc2OC)ncc1Cl [Example 23-1] | – | 3.4 nM | 530 nM | 200 nM | 600 nM | 630 nM | – | – | – | –
CCCS(=O)(=O)c1ccccc1Nc1nc(Nc2ccc(N3CCN(C(C)=O)CC3)cc2OC)ncc1Cl [Example 26-2] | – | 1.9 nM | 390 nM | 120 nM | 30 nM | 90 nM | – | – | – | –
CCCS(=O)(=O)c1ccccc1Nc1nc(Nc2ccc(N3CCC(N4CCCCC4)CC3)cc2OC)ncc1Cl [Example 26-3] | – | 1.4 nM | 230 nM | 130 nM | 100 nM | – | 0.5 to 200 nM | – | – | –
CCCS(=O)(=O)c1ccccc1Nc1nc(Nc2ccc(N3CCC(O)CC3)cc2OC)ncc1Cl [Example 26-4] | – | 4.9 nM | 1160 nM | 430 nM | 50 nM | 290 nM | – | – | – | –
CCCS(=O)(=O)c1ccccc1Nc1nc(Nc2ccc(N3CCN(C(C)=O)C(C)(C)C3)cc2OC)ncc1Cl [Example 26-11] | – | 4.4 nM | – | 780 nM | 400 nM | 500 nM | – | – | – | –
CCCS(=O)(=O)c1ccccc1Nc1nc(Nc2cc(N3CCOCC3)ccc2OC)ncc1Cl [Example 26-17] | – | 17 nM | – | 100 nM | 300 nM | 260 nM | – | – | – | –
CCCS(=O)(=O)c1ccccc1Nc1nc(Nc2ccc(N3CCC(N(C)C)C3)cc2OC)ncc1Cl (stereo not drawn) [Example 26-24] | – | 1 nM | – | – | 500 nM | – | – | 480 nM | 900 nM | –
COc1cc(N2CCC(N3CCOCC3)CC2)ccc1Nc1ncc(Cl)c(Nc2ccccc2S(=O)(=O)C(C)C)n1 [Example 28-13] | – | 7.8 nM | – | 550 nM | 100 nM | 290 nM | – | – | – | –
COc1cc(N2CCC(O)CC2)ccc1Nc1ncc(Cl)c(Nc2ccccc2S(=O)(=O)C(C)C)n1 [Example 28-16] | – | 11 nM | – | 1000 nM | 110 nM | 600 nM | – | – | – | –
COc1cc(N2CCC[C@H](C(N)=O)C2)ccc1Nc1ncc(Cl)c(Nc2ccccc2S(=O)(=O)C(C)C)n1 [Example 28-27] | – | 2.4 nM | – | 420 nM | 300 nM | 500 nM | – | – | – | –
COc1cc(N2CCC[C@@H](C(N)=O)C2)ccc1Nc1ncc(Cl)c(Nc2ccccc2S(=O)(=O)C(C)C)n1 [Example 28-28] | – | 5.2 nM | – | 520 nM | 400 nM | 1000 nM | – | – | – | –

From patent US7893074B2, “2, 4-pyrimidinediamines useful in the treatment of neoplastic diseases, inflammatory and immune system disorders” (Novartis AG, priority 2003, dated 2011)
